{"source": "paper PMC8074792", "about": "“An ω-3, but Not an ω-6 Polyunsaturated Fatty Acid Decreases Membrane Dipole Potential and Stimulates Endo-Lysosomal Escape of Penetratin” (Frontiers in Cell and Developmental Biology, 2021)", "key": {"THP-1 cells [1]": {"tested_on": "THP-1 cells", "assay": "Membrane dipole potential, di-8-ANEPPS excitation ratio, spectrofluorometry", "type": "cell-based, human", "settings": "fatty acid 12.5-50 μM for 48 h, result at maximal 50 μM, n = 5", "protocol": "(§1) The human acute monocytic leukemia-derived cell line THP-1 and the human Epstein-Barr virus (EBV) transformed lymphoblastoid cell line JY were obtained from the American Type Culture Collection (Manassas, VA, United States) and cultivated according to their specifications. […] As controls, cells were treated with the corresponding amounts of native MβCD complexes not containing sterols. To study the effects of fatty acids, cells were incubated for 48 h in medium supplemented with saturated stearic acid (SA, Sigma Aldrich), ω-3 polyunsaturated α-linolenic acid (ALA, Sigma Aldrich) or ω-6 polyunsaturated γ-linolenic acid (GLA, Sigma Aldrich) at various concentrations ranging from 12.5 to 50 μM. […] After washing, cells were kept on ice and samples were subsequently warmed to 37°C right before measurements carried out with a Fluorolog-3 spectrofluorometer (Horiba Jobin Yvon, Edison, NJ, United States). During measurements, the cuvette holder was kept at 37°C using a circulating water bath. Excitation spectra were recorded between 380 and 550 nm with the detected emission wavelength set to 660 nm in order to minimize effects of possible changes in membrane fluidity ([Clarke and Kane, 1997]). The ratio of fluorescence intensities integrated between excitation wavelengths 410–440 nm and 490–520 nm was calculated for each sample, which positively correlates with the magnitude of DP ([Clarke and Kane, 1997]; [Kovacs et al., 2017]; [Batta et al., 2020])."}, "JY cells [2]": {"tested_on": "JY cells", "assay": "Membrane dipole potential, di-8-ANEPPS excitation ratio, spectrofluorometry", "type": "cell-based, human", "settings": "fatty acid 12.5-50 μM for 48 h, result at maximal 50 μM, n = 5", "protocol": "as §1"}, "THP-1 cells [3]": {"tested_on": "THP-1 cells", "settings": "50 μM fatty acid 48 h, LysoTracker Deep Red and 10 µM PY3174 2 h at 37°C, extent similar to cell membrane", "protocol": "(§2) Measurement of hydration of lysosomal membranes with fluorescence microscopy […]\n(§3) The PY3174 fluorophore capable of providing information about the hydration of the cell membrane […]\n(§4) via an emission ratiometric fluorescence microscopy assay was a kind gift from Leslie M. Loew […]\n(§5) (University of Connecticut, CT) (1). For these measurements, cells were placed onto an 8-well […]\n(§6) chambered coverglass and labeled with 100 nM LysoTracker Deep Red (Thermo Fisher Scientific, […]\n(§7) Waltham, MA) for visualization of lysosomes and 10 µM PY3174 for 2 hours at 37°C to stimulate the […]\n(§8) endocytosis of the environment-sensitive fluorophore. After staining, images were taken at the […]\n(§9) midplane of cells using an LSM880 confocal laser-scanning microscope (Carl Zeiss AG, Jena, […]\n(§10) Germany). PY3174 was excited at 488 nm and emitted intensities were measured in two wavelength […]\n(§11) ranges between 500 and 540 nm (Iblue) and 650 and 735 nm (Ired), while LysoTracker Deep Red was […]\n(§12) excited at 633 nm and emission was detected between 650 and 735 nm. During processing, pixels […]\n(§13) corresponding to lysosomal membranes were identified based on the intensity of LysoTracker Deep […]\n(§14) Red using a custom-written algorithm under MATLAB. The average value of generalized polarization […]\n(§15) (GP) correlating with the degree of membrane hydration (1) was calculated from the data of lysosomal […]\n(§16) membrane pixels after background subtraction using […]\n(§17) (1 picture or pasted object on this page, not shown here)"}, "JY cells [4]": {"tested_on": "JY cells", "settings": "50 μM fatty acid 48 h, LysoTracker Deep Red and 10 µM PY3174 2 h at 37°C, extent similar to cell membrane", "protocol": "as §2, §3, §4, §5, §6, §7, §8, §9, §10, §11, §12, §13, §14, §15, §16, §17"}, "THP-1 cells [5]": {"tested_on": "THP-1 cells", "assay": "Membrane hydration, PY3174 generalized polarization, confocal microscopy", "type": "cell-based, human", "settings": "200 μM sterol 1 h or 50 μM fatty acid 48 h, efficacy order 6KC > cholesterol ≥ 7DHC, all statistically significant", "protocol": "(§18) For these measurements, cells were labeled with 10 μM PY3174 for 20 min at room temperature. […] During processing, segmentation of images into membrane and non-membrane pixels was carried out with the manually seeded watershed algorithm using a custom-written MATLAB program as described previously ([Kovacs et al., 2017]). The average value of general polarization correlating with the degree of membrane compactness ([[…] et al., 2013]) was calculated from the data of cell membrane pixels after background subtraction using […]"}, "JY cells [6]": {"tested_on": "JY cells", "assay": "Membrane hydration, PY3174 generalized polarization, confocal microscopy", "type": "cell-based, human", "settings": "200 μM sterol 1 h or 50 μM fatty acid 48 h, efficacy order 6KC > cholesterol ≥ 7DHC, effects of 7DHC and SA not statistically significant", "protocol": "as §18"}, "THP-1 cells [7]": {"tested_on": "THP-1 cells", "assay": "Membrane dipole potential, F66 emission ratio, flow cytometry", "type": "cell-based, human", "settings": "n = 5; for effect of fatty acid pretreatment on cholesterol-induced DP elevation (Rem, F66): 50 μM fatty acid 48 h, then 50 or 200 μM cholesterol 1 h; for Rem, F66: fatty acid 12.5-50 μM for 48 h", "protocol": "(§19) The human acute monocytic leukemia-derived cell line THP-1 and the human Epstein-Barr virus (EBV) transformed lymphoblastoid cell line JY were obtained from the American Type Culture Collection (Manassas, VA, United States) and cultivated according to their specifications. […] As controls, cells were treated with the corresponding amounts of native MβCD complexes not containing sterols. To study the effects of fatty acids, cells were incubated for 48 h in medium supplemented with saturated stearic acid (SA, Sigma Aldrich), ω-3 polyunsaturated α-linolenic acid (ALA, Sigma Aldrich) or ω-6 polyunsaturated γ-linolenic acid (GLA, Sigma Aldrich) at various concentrations ranging from 12.5 to 50 μM. […] After washing, the fluorescence intensities of cells were determined with a FACS Aria III flow cytometer (Becton Dickinson, Mountain View, CA, United States) at 37°C. […] Data analysis was carried out in FCS Express (De Novo Software, Los Angeles, CA, United States). The ratio of emitted intensities in the two wavelength ranges (N^∗/T^∗) was determined for each cell and the average value was calculated for each sample from the data of living cells gated on FSC-SSC dot plots. The value of N^∗/T^∗ ratio negatively correlates with the magnitude of DP ([Kovacs et al., 2017])."}, "JY cells [8]": {"tested_on": "JY cells", "assay": "Membrane dipole potential, F66 emission ratio, flow cytometry", "type": "cell-based, human", "settings": "50 μM fatty acid 48 h, then 50 or 200 μM cholesterol 1 h, n = 5", "protocol": "as §19"}, "THP-1 cells [9]": {"tested_on": "THP-1 cells", "assay": "Membrane fluidity, TMA-DPH fluorescence anisotropy", "type": "cell-based, human", "settings": "200 μM sterol 1 h or 50 μM fatty acid 48 h, 37°C, n = 6, vs control", "protocol": "(§20) 4′-(trimethylammonio)-diphenylhexatriene (TMA-DPH) was purchased from Sigma-Aldrich, dissolved in tetrahydrofuran and used for determination of membrane fluidity as described previously ([Batta et al., 2018]). […] Fluorescence intensities were measured without washing using a Fluorolog-3 spectrofluorometer (Horiba Jobin Yvon, Edison, NJ, United States) with the temperature of the cuvette holder adjusted to 37°C by a circulating water bath. The fluorescence anisotropy (r) of TMA-DPH was determined in the L-format after excitation at 352 nm and measurement of fluorescence intensities at 430 nm according to the formula: […]"}, "JY cells [10]": {"tested_on": "JY cells", "assay": "Membrane fluidity, TMA-DPH fluorescence anisotropy", "type": "cell-based, human", "settings": "200 μM sterol 1 h or 50 μM fatty acid 48 h, 37°C, n = 6, vs control", "protocol": "as §20"}}}
{"smiles": "CC/C=C\\C/C=C\\C/C=C\\CCCCCCCC(=O)O", "note": "[ALA, α-linolenic acid]", "values": [{"measurement": "Rexc, di-8-ANEPPS", "setting": "THP-1 cells [1]", "value": "significantly decreased"}, {"measurement": "Rexc, di-8-ANEPPS", "setting": "JY cells [2]", "value": "significantly decreased"}, {"measurement": "generalized polarization of PY3174 in the lysosomal membranes", "setting": "THP-1 cells [3]", "value": "decreased"}, {"measurement": "generalized polarization of PY3174 in the lysosomal membranes", "setting": "JY cells [4]", "value": "decreased"}, {"measurement": "PY3174 generalized polarization in the cell membrane (inversely correlates with membrane hydration)", "setting": "THP-1 cells [5]", "value": "reduced"}, {"measurement": "PY3174 generalized polarization in the cell membrane (inversely correlates with membrane hydration)", "setting": "JY cells [6]", "value": "reduced"}, {"measurement": "effect of fatty acid pretreatment on cholesterol-induced DP elevation (Rem, F66)", "setting": "THP-1 cells [7]", "value": "significantly decreased the DP-elevating effect of cholesterol"}, {"measurement": "Rem, F66", "setting": "THP-1 cells [7]", "value": "dose-dependently and significantly increased"}, {"measurement": "effect of fatty acid pretreatment on cholesterol-induced DP elevation (Rem, F66)", "setting": "JY cells [8]", "value": "significantly decreased the DP-elevating effect of cholesterol"}, {"measurement": "TMA-DPH fluorescence anisotropy (inversely correlates with membrane fluidity)", "setting": "THP-1 cells [9]", "value": "significantly decreased"}, {"measurement": "TMA-DPH fluorescence anisotropy (inversely correlates with membrane fluidity)", "setting": "JY cells [10]", "value": "significantly decreased"}]}
{"smiles": "CCCCC/C=C\\C/C=C\\C/C=C\\CCCCC(=O)O", "note": "[GLA, γ-linolenic acid]", "values": [{"measurement": "Rexc, di-8-ANEPPS", "setting": "THP-1 cells [1]", "value": "significant increases"}, {"measurement": "Rexc, di-8-ANEPPS", "setting": "JY cells [2]", "value": "significant increases"}, {"measurement": "generalized polarization of PY3174 in the lysosomal membranes", "setting": "THP-1 cells [3]", "value": "decreased"}, {"measurement": "generalized polarization of PY3174 in the lysosomal membranes", "setting": "JY cells [4]", "value": "decreased"}, {"measurement": "PY3174 generalized polarization in the cell membrane (inversely correlates with membrane hydration)", "setting": "THP-1 cells [5]", "value": "reduced"}, {"measurement": "PY3174 generalized polarization in the cell membrane (inversely correlates with membrane hydration)", "setting": "JY cells [6]", "value": "reduced"}, {"measurement": "effect of fatty acid pretreatment on cholesterol-induced DP elevation (Rem, F66)", "setting": "THP-1 cells [7]", "value": "a tendency to augment the cholesterol-induced DP changes"}, {"measurement": "Rem, F66", "setting": "THP-1 cells [7]", "value": "opposite changes"}, {"measurement": "effect of fatty acid pretreatment on cholesterol-induced DP elevation (Rem, F66)", "setting": "JY cells [8]", "value": "a tendency to augment the cholesterol-induced DP changes"}, {"measurement": "TMA-DPH fluorescence anisotropy (inversely correlates with membrane fluidity)", "setting": "THP-1 cells [9]", "value": "did not reach statistical significance"}, {"measurement": "TMA-DPH fluorescence anisotropy (inversely correlates with membrane fluidity)", "setting": "JY cells [10]", "value": "did not reach statistical significance"}]}
